According to US20250319021A1, “COMPOSITION OF HYDROGEL LOADED WITH HORMONE” (VITALTE LIFESCIENCES INC., priority 2024, published 2025):

Legend:
[1] = T release rate comparison in saline incubation media; format: physicochemical; settings: 2, 4 and 6 hours
Protocol: In order to compare the release rate results of hydrogel encapsulated T to pelleted T, larger gels had to be prepared as the T pellets which the hydrogels are intended to replace are 25 mg, where the E2 pellets are merely 6 mg. Thus, approximately 83 mg of hydrogel at 30% T loading and 1% HA were prepared. In order to achieve even or consistent crosslinking in these much larger hydrogel samples, Likarda's patented micromolds (shown in FIG. 21) were employed. After formation, the encapsulated T was removed from the molds and placed in tubes to be rotated for an hour. The encapsulated T hydrogels were then removed from the tubes and stored in Dulbecco's PBS buffer. The large hydrogel blocks encapsulating T were then tested and compared to 25 mg T pellets and micronized T powder.
The T powder was produced as a 2.5 mg/mL slurry in buffer to reach the near saturation point of T in the buffer. Samples of the T powder slurry were removed from only the top layer of the slurry fluid to avoid aspirating T particles in the slurry that may have precipitated at to the bottom. T pellets were collected directly from the vials in which they were stored. The 83 mg hydrogels containing 30% T were collected from Dulbecco's PBS buffer, rinsed, and dried. Each of the collected samples was then placed in a separate container of incubation media (saline in this instance) for the release studies. […]

[2] = cited from earlier work

Row | SMILES | T release level / approximate saturation level of T in saline [1] | solubility in water compared to E2 [2]
1 | C[C@]12CC[C@H]3[C@@H](CCC4=CC(=O)CC[C@@]43C)[C@@H]1CC[C@@H]2O [T powder, Testosterone] | about 1.5 mg/L | –
2 | C[C@]12CC[C@H]3[C@@H](CCC4=CC(=O)CC[C@@]43C)[C@@H]1CC[C@@H]2O [Testosterone (T), Testosterone] | – | much higher solubility factor in water compared to E2
